Peptide text beside a SMILES is read from it. * marks the point of attachment. DOTA = O=C(O)CN1CCN(CC(=O)O)CCN(CC(=O)*)CCN(CC(=O)O)CC1
Experiments:
HEK-293 cells [1] = assay: Biotinylated peptide fluorescent microscopy; assay type: cell-based, human; settings: fixed HEK-293 cells, 10 µM biotinylated peptide in PBS, 1 h room temperature, Neutravidin Texas Red detection
Method: (§1) All cell lines were grown to 80% confluency and fixed with 4% paraformaldehyde. Cells were dried onto microscope slides overnight followed by rehydration with PBS. Slides were blocked with 5% BSA in PBS for 2 h at room temperature. Biotinylated EGFL6 peptide was diluted to 10 µM in PBS and 100 µL was added to each cell sample for incubation at room temperature for 1 h. Slides were washed 3 times with 0.1% TBST and cells were incubated with Neutravidin Texas Red (Life Technologies, Rockville, MD) diluted to 5 µg/mL in 0.1% TBST for 1 h at room temperature. Washing was performed in the same manner and cells were visualized by an epifluorescent Nikon T1-SM inverted microscope (Nikon, Melville, NY).

MDA-MB-468 cells [2] = assay: Biotinylated peptide fluorescent microscopy; assay type: cell-based, human; settings: fixed MDA-MB-468 cells, 10 µM biotinylated peptide in PBS, 1 h room temperature, Neutravidin Texas Red detection
Method: as §1

MDA-MB-435 cells [3] = assay: Biotinylated peptide fluorescent microscopy; assay type: cell-based, human; settings: fixed MDA-MB-435 cells, 10 µM biotinylated peptide in PBS, 1 h room temperature, Neutravidin Texas Red detection
Method: as §1

MDA-MB-435 cells [4] = settings: ref Previous work (reference number not given); cited from earlier work
SK-BR-3 cells [5] = assay: Biotinylated peptide fluorescent microscopy; assay type: cell-based, human; settings: fixed SK-BR-3 cells, 10 µM biotinylated peptide in PBS, 1 h room temperature, Neutravidin Texas Red detection
Method: as §1

SK-BR-3 cells [6] = assay: 111In-DOTA-EGFL6 cell binding; assay type: cell-based, human; settings: 37°C, 1 h, gamma counter, mean ± SD of 4 samples
Method: (§2) DOTA-EGFL6 was diluted to 1 mg/mL in water and incubated with 0.1 M ammonium acetate (pH 5) and 18.5 MBq of ^111In at 80°C for 1 h. Reactions were quenched by addition of 10 µM EDTA. Radiolabeled peptide was purified by reverse phase HPLC using a linear gradient of acetonitrile plus 0.1% trifluoroacetic acid from 5–95% over 35 minutes. Acetonitrile was evaporated by nitrogen gas flow, and peptide was d iluted to appropriate concentration using sterile PBS.
(§3) MDA-MB-435, MDA-MB-468, SK-BR-3 and HEK-293 cells were diluted to 2×10^6 cells/mL in Dulbelco’s Modified Eagle Medium (DMEM) with 0.1 mg/mL BSA. ^111In-DOTA-EGFL6 was diluted to 1×10^7 CPM/mL in DMEM plus 0.1% BSA and 100 µL of peptide was added to 200 µL of cells and incubated at 37°C for 1 h. Cells were washed three times with ice-cold PBS with 1% BSA and counted via gamma counter.

HEK-293 cells [7] = assay: 111In-DOTA-EGFL6 cell binding; assay type: cell-based, human; settings: 37°C, 1 h, gamma counter, mean ± SD of 4 samples
Method: as §2, §3

MDA-MB-468 cells [8] = assay: 111In-DOTA-EGFL6 cell binding; assay type: cell-based, human; settings: 37°C, 1 h, gamma counter, mean ± SD of 4 samples
Method: as §2, §3

MDA-MB-435 cells [9] = assay: 111In-DOTA-EGFL6 cell binding; assay type: cell-based, human; settings: 37°C, 1 h, gamma counter, mean ± SD of 4 samples
Method: as §2, §3

in vivo = assay: in vivo; set-up: species or system SCID mice; settings: SCID (outbred, Taconic), mouse, iv, total radioactivity
Method: Four- to 6-week-old Severe Combined Immunodeficient (SCID) out bred mice (Taconic, Germantown, NY) was maintained in approved pathogen-free institutional housing. Animal studies were conducted as outlined in the NIH Guidelines for the Care and Use of Laboratory Animals and the Policy and Procedures for Animal Research of the Harry S. Truman Veterans Memorial Hospital. MDA-MB-435 human breast cancer xenografts (5×10^6) were established by subcutaneous injection into the flank of SCID mice. Mice were utilized when visual tumors (~1–3mm^3) formed after approximately 5 weeks.
DOTA-EGFL6 peptide was radiolabeled with ^111In and purified peptide was prepared at 1.85 MBq/mL in sterile PBS. Three mice bearing MDA-MB-435 tumors were intravenously injected with ^111In-DOTA-EGFL6 and sacrificed at 2 h. Organs and tissues pertinent to tumor uptake and clearance were excised, weighed, and counted by gamma counter. Percentage of injected dose per gram (%ID/g) of tissue was reported to normalize uptake by tissue mass.

[10] = tested on: MDA-MB-435 human breast cancer xenograft; assay type: in vivo, SCID mice; settings: 2 h post-injection, intravenous
Method: Four- to 6-week-old Severe Combined Immunodeficient (SCID) out bred mice (Taconic, Germantown, NY) was maintained in approved pathogen-free institutional housing. Animal studies were conducted as outlined in the NIH Guidelines for the Care and Use of Laboratory Animals and the Policy and Procedures for Animal Research of the Harry S. Truman Veterans Memorial Hospital. MDA-MB-435 human breast cancer xenografts (5×10^6) were established by subcutaneous injection into the flank of SCID mice. Mice were utilized when visual tumors (~1–3mm^3) formed after approximately 5 weeks. Radiolabeled, purified ^111In-DOTA-GSG-EGFL6 was diluted to 11.1 MBq in 100 µL of sterile PBS. The peptide was injected intravenously in a mouse bearing an MDA-MB-435 human breast cancer xenograft. Following injection, radiolabeled peptide was permitted to circulate for 2h, followed by euthanization by carbon dioxide. The treated mouse was imaged at the Harry S. Truman Veterans Memorial Hospital Biomolecular Imaging Center. Overnight (7h) image acquisition was performed with a Siemens Inveon Micro-SPECT/CT (Siemens, Knoxville, TN) equipped with mouse whole body 1.0 mm collimators. Data were processed with Inveon Research Workplace processing software and fan beam (Feldkamp) filtered back projection algorithms were used for reconstruction of the CT tomographic image.

## GTKWACCYGWRNSS [Biotinylated EGFL6 peptide, EGFL6 peptide with N-terminal GSG spacer conjugated at the N-terminus with biotin]
HEK-293 cells [1]
  Peptide binding by fluorescent microscopy: no binding
MDA-MB-468 cells [2]
  Peptide binding by fluorescent microscopy: bound strongly
MDA-MB-435 cells [3]
  Peptide binding by fluorescent microscopy: bound strongly

## GTKSKCCYSLRRSS [3-G03, phage selected peptide with 64% homology to EGFL6]
MDA-MB-435 cells [4]
  Binding to MDA-MB-435 cells in vitro: bound to MDA-MB-435 cells

## GTKWACCYGWRNSS [EGFL6 peptide]
SK-BR-3 cells [5]
  Peptide binding by fluorescent microscopy: undetectable

## C[C@H](NC(=O)[C@H](Cc1c[nH]c2ccccc12)NC(=O)[C@H](CCCCN)NC(=O)[C@@H](NC(=O)CNC(=O)CNC(=O)[C@H](CO)NC(=O)CNC(=O)CN1CCN(CC(=O)O)CCN(CC(=O)O)CCN(CC(=O)O)CC1)[C@@H](C)O)C(=O)N[C@@H](CS)C(=O)N[C@@H](CS)C(=O)N[C@@H](Cc1ccc(O)cc1)C(=O)NCC(=O)N[C@@H](Cc1c[nH]c2ccccc12)C(=O)N[C@@H](CCCNC(=N)N)C(=O)N[C@@H](CC(N)=O)C(=O)N[C@@H](CO)C(=O)N[C@@H](CO)C(=O)O [^111In-DOTA-EGFL6, metal not drawn] ({DOTA}-GSGGTKWACCYGWRNSS-OH; N-terminus and C-terminus assumed)
SK-BR-3 cells [6]
  Peptide binding, % of total peptide added: 4.7 ± 0.2%
HEK-293 cells [7]
  Peptide binding, % of total peptide added: 5.4 ± 0.5%
MDA-MB-468 cells [8]
  Peptide binding, % of total peptide added: 10.5% ± 2.7
MDA-MB-435 cells [9]
  Peptide binding, % of total peptide added: 12.3 ± 1.0%
In vivo; Blood retention
  tissue uptake at 2 h: 1.3 ± 0.51 %ID/g
In vivo; Kidney retention
  tissue uptake at 2 h: 28.6 ± 4.24 %ID/g
In vivo; Non-target organ accumulation, all organs measured except the kidneys
  tissue uptake at 2 h: < 1 %ID/g
In vivo; Tumor to blood ratio
  tissue to tissue ratio at 2 h: 0.27
In vivo; Tumor to muscle ratio
  tissue to tissue ratio at 2 h: 2.7
In vivo; Tumor uptake
  tissue uptake at 2 h: 0.36 ± 0.08 %ID/g
[10]
  Radiolabel at interface between xenograft and muscle (vasculature-like binding) in SPECT/CT image: strikingly high concentration of radiolabel
[10]; 11.1 MBq, one mouse
  Tumor uptake in SPECT/CT image: low tumor uptake
